The assay addresses Bcl-2-like protein 1 (Homo sapiens) (UniProt Q07817). Briefly: Bim-Bcl-XL interaction inhibitors, potency, dose response, biochemical, multiplexed, bead flow cytometry, human Bcl-XL (AID 1322). For inhibition: test concentration not given here. The following applies: Bead-based flow cytometry, Bim peptide-Bcl-XL binding, MCF; for inhibition: stronger effect = higher value. (In general: Flow cytometry measures light scatter and fluorescence of single cells or particles in a stream.)

Calls of active or inactive are those of the source. The rule behind the calls is not given here.

We go through 65 compounds from PubChem BioAssay AID1322 (NMMLSC, 2008).

Bcl-2-like protein 1 (Homo sapiens), sequence (Q07817 whole entry, looked up): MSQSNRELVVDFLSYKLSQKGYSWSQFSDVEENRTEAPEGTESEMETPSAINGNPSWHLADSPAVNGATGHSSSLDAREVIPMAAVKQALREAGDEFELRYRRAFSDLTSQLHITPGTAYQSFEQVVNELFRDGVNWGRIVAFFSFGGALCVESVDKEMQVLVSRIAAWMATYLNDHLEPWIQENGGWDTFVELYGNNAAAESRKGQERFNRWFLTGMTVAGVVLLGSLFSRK

Take `O=C(NCCCN1CCN(CCCNC(=O)c2cc([N+](=O)[O-])ccc2Cl)CC1)c1cc([N+](=O)[O-])ccc1Cl`: the inhibition entry was “inactive”. Same read-out and setting: under `O=C(Nc1cccc(C(F)(F)F)c1)c1ccc2nc(-c3ccco3)c(-c3ccco3)nc2c1` stands “inactive”; under `Cc1ccc(Nc2nc(-c3ccccc3)c(CC(=O)O)s2)cc1`, “inactive”.

With `N#Cc1cc(-c2ccccc2)nn1-c1ccccc1`, the inhibition result was “inactive”. Still for that read-out and setting: as for `Cc1ccc(-c2cc(C(=O)Nc3cccnc3)c3ccccc3n2)o1`, the entry is “inactive”; as for `CS(=O)(=O)NN1C(=O)c2ccccc2NC1c1cccc2cccnc12` (stereo not given), “inactive”. With `N/C(=N\OC(=O)CCC1CCCC1)c1ccncc1`, the result was inactive. Consider `CC1Cc2ccccc2N1C(=O)CSc1nnnn1-c1ccc2c(c1)OCCO2` (stereo not given), for which the inhibition result was “inactive”. The same measure, in the same setting: as for `O=C(C1=C(Nc2ccccc2)c2ccccc2S(=O)(=O)N1)c1ccccc1`, the entry is “inactive”; as for `Cc1sc2nc(C(C)C)nc(SCC(=O)N3c4ccccc4CC3C)c2c1C` (stereo not given), “inactive”. Same read-out and setting: under `O=C(Nc1ccc2nc(-c3ccco3)c(-c3ccco3)nc2c1)N1CCCCCC1` stands “inactive”.

On to `Cc1ccc(-n2nc(C)c(C(=O)O)n2)c(C)c1`, for which the inhibition entry is “inactive”. Same read-out and setting: under `O=C(Nc1n[nH]c(C(F)(F)F)n1)C1CC1` stands “inactive”; under `COc1cccc2c(SCC(=O)N/N=C/c3ccc(O)c(O)c3)cc(C)nc12`, “inactive”. As to `COc1ccccc1N(C)S(=O)(=O)c1ccc(C(=O)OCC(N)=O)cc1`, the outcome was inactive. On to `COc1ccc(NC(=O)C2=C(C)NC(=O)NC2c2cccc(OC)c2OC)c(OC)c1` (stereo not given), for which the inhibition entry was “inactive”. Same read-out and setting: as for `c1ccc(Nc2nc(-c3ccncc3)cs2)cc1`, the entry is “inactive”; as for `Cc1cc(C(=O)NCCCN(C)C)c2ccccc2n1`, “inactive”. `Nc1cccc(-c2cn3cccnc3n2)c1`: the result was inactive.

Turning to `CCN(C(=O)COC(=O)c1cc(-c2ccc(C)o2)nc2ccccc12)C1CCS(=O)(=O)C1` (stereo not given), the inhibition result is “inactive”. Same read-out and setting: as for `Cn1c(=O)[nH]c(=O)c2c1nc(N1CCOCC1)n2CCSc1nc2ccccc2[nH]1`, the entry is “inactive”. For the compound `Cn1c(=O)c2cc(S(=O)(=O)Nc3cc(C(=O)O)cc(C(=O)O)c3)ccc2n(C)c1=O`, the outcome was inactive. With `COc1ccc(NC(=O)COc2ncnc3ccccc23)cc1S(=O)(=O)N1CCOCC1`, the inhibition result is “inactive”. Still for that read-out and setting: under `O=C(/C=C/c1ccc(-c2ccccc2)o1)c1ccccc1` stands “inactive”. On to `CCOc1ccc(CNc2ccc(N3CCCC3)cc2)cc1`, for which the inhibition entry was “inactive”.

With `Cc1ccc(-c2cc(-c3ccc(C)o3)nc(N)c2C#N)cc1`, the inhibition entry was “inactive”. For the compound `Cc1ccc(-c2nc3c(c(=O)[nH]c(=O)n3Cc3ccccc3)n2Cc2ccccc2)o1`, the inhibition result was “inactive”. For the compound `CNc1ccc(Br)cc(C(=O)/C=C/c2cccc(OC)c2)c1=O`, the inhibition result was “inactive”. Still for that read-out and setting: as for `COC(=O)CCC(=O)Nc1sc(Cc2ccccc2)c(C)c1C(N)=O`, the entry is “inactive”. For `C=CCn1c(C)c(C(C)=O)c(N2CCOCC2)nc1=S`, the inhibition result was “inactive”. Turning to `Cn1c(=O)c(C(=O)COC(=O)c2cc(-c3ccco3)nc3ccccc23)c(N)n(Cc2ccccc2)c1=O`, the inhibition entry is “inactive”. In the case of `COc1ccc(C2CC(=O)C3=C(C2)Nc2ccccc2NC3c2coc3ccccc3c2=O)cc1OC` (stereo not given), the inhibition result was “inactive”.

Consider `O=C(Nc1ccccc1N1CCOCC1)c1cccs1`, for which the inhibition result is “inactive”. Consider `COc1ccc(N2CCN(C(CNS(=O)(=O)c3ccc4c(c3)OCCO4)c3ccco3)CC2)cc1` (stereo not given), for which the result was inactive. Consider `COc1ccc2nc(NC(=O)c3ccc(-c4cccc([N+](=O)[O-])c4)o3)sc2c1`, for which the inhibition result was “inactive”. The same measure, in the same setting: as for `Cc1nn(-c2ccc(Cl)cc2)c(Cl)c1/C=C(\C#N)C(N)=O`, the entry is “inactive”; as for `C/C(=N\NC(=O)COc1ccc(C#N)cc1)c1ccccc1OC(F)F`, “inactive”. As to `O=C(c1ccccc1)c1ccc2nc(-c3ccco3)c(-c3ccco3)nc2c1`, the outcome was inactive. As to `O=C(C1=NN[C@@H]2C(=O)N(c3cccc(F)c3)C(=O)[C@H]12)c1ccc2ccccc2n1`, the result was inactive.

For the compound `O=C(CSc1nnc(-c2ccco2)n1Cc1ccccc1)c1ccccc1`, the inhibition result is “inactive”. As to `O=C(NCCN1CCOCC1)c1cc(Cl)ccc1[N+](=O)[O-]`, the inhibition result was “inactive”. For the compound `Clc1ccc2c(N/N=C/c3ccc(Br)cc3)ccnc2c1`, the result was inactive. Regarding `O=C(O)C1=C[C@H](C2CC2)C[C@H](OCCCCO)O1`, the inhibition result was “inactive”. The same measure, in the same setting: as for `CCOC(=O)C1=C(Cc2ccc(OC)cc2)C(=O)c2ccccc2C1=O`, the entry is “inactive”.

Regarding `Cc1ccc(NN2C(=O)C=CC2=O)cc1`, the outcome was inactive. Consider `O=C(Nc1nnc(COc2ccc(Cl)cc2)s1)c1ccco1`, for which the inhibition result was “inactive”. With `Oc1ccc(NCc2ccccc2OCc2ccccc2)cc1`, the result was inactive.

As for `COc1ccccc1NC(=O)CSc1nnc(-c2ccco2)n1Cc1ccco1`, the inhibition entry is “inactive”.

With `O=C(COCC(=O)NCc1ccccc1)NCc1ccccc1`, the inhibition entry is “inactive”.

`CCc1ccc(/C=C/C(=O)c2cc(Br)ccc(=O)c2O)cc1`: the inhibition entry is “inactive”. Same read-out and setting: under `Nc1ccc(N2CCN(CCCCN3C(=O)C4CCCN4C3=O)CC2)cc1` (stereo not given) stands “inactive”. Take `CCN1/C(=C/c2ccc3cc(C)cc(C)c3[n+]2CC)Sc2cc(C)ccc21`: the inhibition entry was “inactive”. As to `Cc1cnnn1-c1ccc(C(=O)CCl)cc1`, the inhibition entry is “inactive”. Same read-out and setting: under `COc1ccc(N2C(=O)C(Cl)=C(Oc3cccc(OC)c3)C2=O)cc1` stands “inactive”; under `CC1(C(=O)N(CC(=O)NC2CCCC2)Cc2ccco2)CC(=O)N=C2C=CC=CN21` (stereo not given), “inactive”. Same read-out and setting: under `O=C(COc1ccccc1)N1CCN(c2ncnc3c2cnn3-c2ccccc2)CC1` stands “inactive”; under `O=C(NCCO)c1ccc2nc(-c3ccco3)c(-c3ccco3)nc2c1`, “inactive”; under `Cc1nnc(NCc2n[nH]c(=O)c3ccccc23)c2ccccc12`, “inactive”. Still for that read-out and setting: under `C/C(=N\NC(=O)Cn1nc(C)c([N+](=O)[O-])c1C)c1ccc(O)cc1` stands “inactive”; under `COc1cc(/C=C2\S/C(=N/S(=O)(=O)c3ccc(C)cc3)NC2=O)c([N+](=O)[O-])cc1OC`, “inactive”. For the compound `Cc1cccc(N2C(S)=C(C#N)C(=O)NC2c2cccs2)c1` (stereo not given), the inhibition result was “inactive”. As to `O=S1(=O)N=C(N(CCO)/N=C/c2ccncc2)c2ccccc21`, the inhibition result was “inactive”. The same measure, in the same setting: under `CC(C)=C1C(=O)NN(c2ccc(C)c(Cl)c2)C1=O` stands “inactive”; under `COc1cccc(/C=N/NC(=O)c2cc3cc([N+](=O)[O-])ccc3s2)c1O`, “inactive”. Still for that read-out and setting: as for `CC(C)(C)OC(=O)N1CCN(C(=O)[C@H](Cc2ccc(O)cc2)n2cc(CCO)nn2)CC1`, the entry is “inactive”.
